{
  "source": "patent US10821115B2",
  "about": "“Compounds that inhibit Mcl-1 protein” (priority 2017, dated 2020)",
  "tested_on": "human multiple myeloma cell line, OPM-2",
  "experiment": "Cell viability assay (OPM-2 10 FBS), CellTiter-Glo",
  "type": "cell-based",
  "in_short": "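IC50 values come from 4-parameter logistic fits of luminescence signals reflecting cell viability. Treatment lasted 16 h at 37 °C in complete medium with 10% FBS, starting from 3000 cells/well.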",
  "key": {"[1]": {"details": "Homo sapiens, OPM-2, 16 h, read-out: OPM-2 10% FBS IC50 IP, OPM-2 cells, 10% FBS, 16 h incubation"}, "[2]": {"details": "read-out: OPM-2 10% FBS IC50 IP, OPM-2 cells, 10% FBS, 16 h, CellTiter-Glo"}, "[3]": {"details": "Homo sapiens, OPM-2, 16 h, read-out: OPM-2 10% FBS IC50 IP, OPM-2 cells, 10% FBS, 16 h, CellTiter-Glo"}},
  "note": "Where two headings read alike, the source gives them in different places.",
  "data": [
    {"smiles": "CCO[C@@]1(CN2CCN3CCOC[C@@H]3C2)/C=C/C[C@H](C)[C@@H](CCOC)S(=O)(=O)NC(=O)c2ccc3c(n2)N(C[C@@H]2CC[C@H]21)C[C@@]1(CCCc2cc(Cl)ccc21)CO3", "note": "[Example 369, (1S,3′R,6′R,7′S,8′E,11′S,12′R)-6-chloro-7′-ethoxy-7′-((9aS)-hexahydropyrazino[2,1-c][1,4]oxazin-8(1H)-ylmethyl)-12′-(2-methoxyethyl)-11′-methyl-3,4-dihydro-2H,15′H-spiro[naphthalene-1,22′-[20]oxa[13]thia[1,14,25]triazatetracyclo [14.7.2.0~3,6~.0~19,24~]pentacosa[8,16,18,24]tetraen]-15′-one 13′,13′-dioxide]", "values": [
      {"measurement": "IC50", "setting": "[1]", "value": 71, "unit": "nM"}
    ]},
    {"smiles": "CCO[C@@]1(CN2CCN3CCCC[C@@H]3C2)/C=C/C[C@H](C)[C@@H](CCOC)S(=O)(=O)NC(=O)c2ccc3c(n2)N(C[C@@H]2CC[C@H]21)C[C@@]1(CCCc2cc(Cl)ccc21)CO3", "note": "[Example 370, (1S,3′R,6′R,7′S,8′E,11′S,12′R)-6-chloro-7′-ethoxy-12′-(2-methoxyethyl)-11′-methyl-7′-((9aR)-octahydro-2H-pyrido[1,2-a]pyrazin-2-ylmethyl)-3,4-dihydro-2H,15′H-spiro[naphthalene-1,22′-[20]oxa[13]thia[1,14,25]triazatetracyclo [14.7.2.0~3,6~.0~19,24~]pentacosa[8,16,18,24]tetraen]-15′-one 13′,13′-dioxide]", "values": [
      {"measurement": "IC50", "setting": "[1]", "value": 369, "unit": "nM"}
    ]},
    {"smiles": "CCO[C@]1(CN2CCN3CCOC[C@@H]3C2)CCC[C@H](C)[C@@H](CCOC)S(=O)(=O)NC(=O)c2ccc3c(c2)N(C[C@@H]2CC[C@H]21)C[C@@]1(CCCc2ccccc21)CO3", "note": "[Example 517, (1S,3′R,6′R,7′R,11′S,12′R)-7′-ethoxy-7′-((9aS)-hexahydropyrazino[2,1-c][1,4]oxazin-8(1H)-ylmethyl)-12′-(2-methoxyethyl)-11′-methyl-3,4-dihydro-2H, 15′H-spiro[naphthalene-1,22′-[20]oxa[13]thia[1,14]diazatetracyclo[14.7.2.0-3,6˜.0˜19,24˜]pentacosa[16,18,24]trien]-15′-one 13′,13′-dioxide]", "values": [
      {"measurement": "IC50", "setting": "read-out: OPM-2 10% FBS IC50 IP, OPM-2 cells, 10% FBS, 16 h incubation", "value": 252, "unit": "nM"}
    ]},
    {"smiles": "CO[C@@]1(CC(=O)N(C)C)/C=C/C[C@H](C)[C@@H](C)S(=O)(=O)NC(=O)c2ccc3c(c2)N(C[C@@H]2CC[C@H]21)C[C@@]1(CCCc2cc(Cl)ccc21)CO3", "note": "[Example 100135, 2-((1S,3′R,6′R,7′S,8′E,11′S,12′R)-6-chloro-7′-methoxy-11′,12′-dimethyl-13′,13′-dioxido-15′-oxo-3,4-dihydro-2H-spiro[naphthalene-1,22′-[20]oxa[13]thia[1,14]diazatetracyclo [14.7.2.0~3,6~.0~19,24~]pentacosa[8,16,18,24]tetraen]-7′-yl)-N,N-dimethylacetamide]", "values": [
      {"measurement": "IC50", "setting": "[2]", "value": 161, "unit": "nM"}
    ]},
    {"smiles": "C[C@@H]1[C@@H](C)CCC[C@@](O)(CC(=O)N2CCC2)[C@@H]2CC[C@H]2CN2C[C@@]3(CCCc4cc(Cl)ccc43)COc3ccc(cc32)C(=O)NS1(=O)=O", "note": "[Example 100144, (1S,3′R,6′R,7′R,11′S,12′R)-7′-(2-(1-azetidinyl)-2-oxoethyl)-6-chloro-7′-hydroxy-11′,12′-dimethyl-3,4-dihydro-2H,15′H-spiro[naphthalene-1,22′-[20]oxa[13]thia[1,14]diazatetracyclo [14.7.2.0~3,6~.0~19,24~]pentacosa[16,18,24]trien]-15′-one 13′,13′-dioxide]", "values": [
      {"measurement": "IC50", "setting": "[2]", "value": 208, "unit": "nM"}
    ]},
    {"smiles": "C[C@@H]1[C@@H](C)C/C=C/[C@@](O)(C#C[Si](C)(C)C)[C@@H]2CC[C@H]2CN2C[C@@]3(CCCc4cc(Cl)ccc43)COc3ccc(cc32)C(=O)NS1(=O)=O", "note": "[Example 100240, (1S,3′R,6′R,7′S,8′E,11′S,12′R)-6-chloro-7′-hydroxy-11′,12′-dimethyl-7′-((trimethylsilyl)ethynyl)-3,4-dihydro-2H,15′H-spiro[naphthalene-1,22′-[20]oxa[13]thia[1,14]diazatetracyclo [14.7.2.0~3,6~.0~19,24~]pentacosa[8,16,18,24]tetraen]-15′-one 13′,13′-dioxide]", "values": [
      {"measurement": "IC50", "setting": "[2]", "value": 266, "unit": "nM"}
    ]},
    {"smiles": "C[C@@H]1[C@@H](C)C/C=C/[C@@](O)(C#C[Si](C)(C)C)[C@@H]2CC[C@H]2CN2C[C@@]3(CCCc4cc(Cl)ccc43)COc3ccc(cc32)C(=O)NS1(=O)=O", "note": "[Example 100243, (1S,3′R,6′R,7′S,8′E,11′S,12′R)-6-chloro-7′-hydroxy-11′,12′-dimethyl-7′-((trimethylsilyl)ethynyl)-3,4-dihydro-2H,15′H-spiro[naphthalene-1,22′-[20]oxa[13]thia[1,14]diazatetracyclo [14.7.2.0~3,6~.0~19,24~]pentacosa[8,16,18,24]tetraen]-15′-one 13′,13′-dioxide]", "values": [
      {"measurement": "IC50", "setting": "[2]", "value": 8670, "unit": "nM"}
    ]},
    {"smiles": "CO[C@]1(c2cccnc2F)/C=C/C[C@H](C)[C@@H](C)S(=O)(=O)NC(=O)c2ccc3c(c2)N(C[C@@H]2CC[C@H]21)C[C@@]1(CCCc2cc(Cl)ccc21)CO3", "note": "[Example 100324, (1S,3′R,6′R,7′R,8′E,11′S,12′R)-6-chloro-7′-(2-fluoro-3-pyridinyl)-7′-methoxy-11′,12′-dimethyl-3,4-dihydro-2H,15′H-spiro[naphthalene-1,22′-[20]oxa[13]thia[1,14]diazatetracyclo [14.7.2.0~3,6~.0~19,24~]pentacosa[8,16,18,24]tetraen]-15′-one 13′,13′-dioxide]", "values": [
      {"measurement": "IC50", "setting": "[2]", "value": 1170, "unit": "nM"}
    ]},
    {"smiles": "CO[C@]1(c2cccnc2F)/C=C/C[C@H](C)[C@@H](C)S(=O)(=O)NC(=O)c2ccc3c(c2)N(C[C@@H]2CC[C@H]21)C[C@@]1(CCCc2cc(Cl)ccc21)CO3", "note": "[Example 100325, (1S,3′R,6′R,7′R,8′E,11′S,12′R)-6-chloro-7′-(2-fluoro-3-pyridinyl)-7′-methoxy-11′,12′-dimethyl-3,4-dihydro-2H,15′H-spiro[naphthalene-1,22′-[20]oxa[13]thia[1,14]diazatetracyclo [14.7.2.0~3,6~.0~19,24~]pentacosa[8,16,18,24]tetraen]-15′-one 13′,13′-dioxide]", "values": [
      {"measurement": "IC50", "setting": "[2]", "value": 482, "unit": "nM"}
    ]},
    {"smiles": "CO[C@]1(c2cccc(F)n2)/C=C/C[C@H](C)[C@@H](C)S(=O)(=O)NC(=O)c2ccc3c(c2)N(C[C@@H]2CC[C@H]21)C[C@@]1(CCCc2cc(Cl)ccc21)CO3", "note": "[Example 100340, (1S,3′R,6′R,7′R,8′E,11′S,12′R)-6-chloro-7′-(6-fluoro-2-pyridinyl)-7′-methoxy-11′,12′-dimethyl-3,4-dihydro-2H,15′H-spiro[naphthalene-1,22′-[20]oxa[13]thia[1,14]diazatetracyclo [14.7.2.0~3,6~.0~19,24~]pentacosa[8,16,18,24]tetraen]-15′-one 13′,13′-dioxide]", "values": [
      {"measurement": "IC50", "setting": "[3]", "value": 308, "unit": "nM"}
    ]},
    {"smiles": "C[C@@H]1[C@@H](C)CCC[C@@](CO)(CN2CCOCC2)[C@@H]2CC[C@H]2CN2C[C@@]3(CCCc4cc(Cl)ccc43)COc3ccc(cc32)C(=O)NS1(=O)=O", "note": "[Example 100341, (1S,3′R,6′R,7′S,11′S,12′R)-6-chloro-7′-(hydroxymethyl)-11′,12′-dimethyl-7′-(4-morpholinylmethyl)-3,4-dihydro-2H,15′H-spiro[naphthalene-1,22′-[20]oxa[13]thia[1,14]diazatetracyclo [14.7.2.0~3,6~.0~19,24~]pentacosa[16,18,24]trien]-15′-one 13′,13′-dioxide]", "values": [
      {"measurement": "IC50", "setting": "[3]", "value": 1940, "unit": "nM"}
    ]}
  ]
}
